Activity calls are given as the source filed them. How the calls were made is not given here.

The Kd is the constant that tells how readily two partners part at equilibrium.

The experiment addresses Chaperone protein DnaK (Escherichia coli (strain K12)) (UniProt P0A6Y8). Nature of the experiment: E. coli DnaK SBD ligand binding – biophysical, NMR, chaperone (AID 1033). The conditions noted are these: Purified DnaK SBD.

Chaperone protein DnaK (Escherichia coli (strain K12)), sequence (P0A6Y8 whole entry, looked up): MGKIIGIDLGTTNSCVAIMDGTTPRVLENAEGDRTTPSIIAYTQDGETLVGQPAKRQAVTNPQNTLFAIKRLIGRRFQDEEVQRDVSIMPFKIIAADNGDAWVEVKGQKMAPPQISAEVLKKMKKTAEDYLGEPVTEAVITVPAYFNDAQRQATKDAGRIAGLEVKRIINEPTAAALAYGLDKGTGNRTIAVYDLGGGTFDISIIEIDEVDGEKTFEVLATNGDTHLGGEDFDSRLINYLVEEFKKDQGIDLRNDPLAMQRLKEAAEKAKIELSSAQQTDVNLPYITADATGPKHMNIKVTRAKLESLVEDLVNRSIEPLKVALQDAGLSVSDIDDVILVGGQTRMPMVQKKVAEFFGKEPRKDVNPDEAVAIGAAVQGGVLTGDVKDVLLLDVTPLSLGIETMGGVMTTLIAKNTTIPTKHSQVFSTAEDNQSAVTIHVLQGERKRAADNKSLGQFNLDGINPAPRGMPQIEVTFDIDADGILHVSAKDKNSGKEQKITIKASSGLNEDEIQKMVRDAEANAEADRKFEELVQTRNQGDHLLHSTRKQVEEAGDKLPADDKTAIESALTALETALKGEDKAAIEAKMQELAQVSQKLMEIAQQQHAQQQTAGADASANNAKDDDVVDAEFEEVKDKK

For the molecule `C=C1C2CC[C@@]3(C)[C@H](c4ccoc4)OC(=O)C[C@]13O[C@H]1C[C@H](OC(C)=O)C(C)(C)[C@H](CC(=O)OC)[C@@]21C`, the Kd was > 4 mM (inactive).

For `C=C(C)[C@@H]1CC[C@]2(CO)CC[C@]3(C)[C@H](CCC4[C@@]5(C)CC[C@H](O)C(C)(C)C5CC[C@]43C)C12` (some centres not stated), the Kd is > 4 mM (inactive).

As to `CC(=O)Nc1sccc1C(=O)NC(N)=O`, the Kd was > 4 mM (inactive).

`Nc1ccc2c(c1)S(=O)(=O)C=C2`: the Kd was > 4 mM (inactive).

With `CCn1c2ccccc2c2nn(C)c(=N)nc21`, the Kd was > 4 mM (inactive).

As for `Cc1cc(=O)n2[nH]c(C)cc2n1`, the Kd is > 4 mM (inactive).

For `CCn1nnc(NC(=O)c2cc3ccccc3o2)n1`, the Kd was > 4 mM (inactive).

On to `CC(=O)NC(=S)Nc1ccc(C(C)=O)cc1`, for which the Kd is > 4 mM (inactive).

On to `NCCCCN=C(N)N`, for which the Kd was > 4 mM (inactive).

With `COC(=O)c1ccc(N2CCCC2)nc1`, the Kd is > 4 mM (inactive).

On to `CC(C)(C)c1ccc(SCC(N)=O)cc1`, for which the Kd was > 4 mM (inactive).

`NNC(=O)c1ccccc1-n1cccc1`: the Kd was > 4 mM (inactive).

Take `CCOC(=O)CC1Sc2ccccc2NC1=S` (configuration not stated): the Kd was > 4 mM (inactive).

On to `C[n+]1cc2c3c(ccc2c2ccc4cc5c(cc4c21)OCO5)OCO3`, for which the Kd was > 4 mM (inactive).

As to `NC(=O)CC1NC(=O)c2ccccc21` (configuration not stated), the Kd was > 4 mM (inactive).

For `Nc1ccc2c(c1)N1CCN=C1S2`, the Kd is > 4 mM (inactive).

As for `OCc1ccc(-n2cccn2)cc1`, the Kd was > 4 mM (inactive).

For `Oc1ccc(C(=S)N2CCCCC2)cc1Cl`, the Kd is > 4 mM (inactive).

As for `CC1(O)CC2C=CC1C2` (configuration not stated), the Kd is > 4 mM (inactive).

As to `O=C1CCC(=O)N1CN1CCOCC1`, the Kd was > 4 mM (inactive).

For the molecule `CC(=O)Oc1cc2c(c(C)c1OC(C)=O)CC=C1[C@@]2(C)CC[C@@]2(C)C3C[C@](C)(C(=O)O)CC[C@]3(C)CC[C@]12C` (some centres not stated), the Kd was > 4 mM (inactive).

For `CC(=O)c1ccc(Cc2cnc(N)s2)cc1`, the Kd was > 4 mM (inactive).

Consider `Nc1ccc(N2CCOCC2)cc1`, for which the Kd was > 4 mM (inactive).

As for `CCc1c(C(=O)N2CCOCC2)csc1C`, the Kd is > 4 mM (inactive).

With `CCSc1nc2ccccc2[nH]1`, the Kd is > 4 mM (inactive).

Turning to `CC(=O)O[C@H]1CC[C@@]2(C)C(=CCC3C2CC[C@@]2(C)C3CC[C@@H]2C(C)CCCC(C)C)C1` (some centres not stated), the Kd is > 4 mM (inactive).

Consider `O=C(c1ccc(N2CCNCC2)cc1)c1cccnc1`, for which the Kd was > 4 mM (inactive).

Consider `Fc1ccc(F)c(CN2CCN(c3ncccn3)CC2)c1`, for which the Kd was > 4 mM (inactive).

In the case of `O=C1CC(=O)N2N=C(c3ccccc3)SC2=N1`, the Kd is > 4 mM (inactive).

Consider `COc1ccc2nc(NC(=O)c3cnccn3)sc2c1`, for which the Kd was > 4 mM (inactive).

`Nc1nc(O)c(C2=c3cc(Cl)ccc3=NC2=O)s1`: the Kd was > 4 mM (inactive).

For the molecule `Cc1cc(C)n(-c2ccc(N)cc2)n1`, the Kd was > 4 mM (inactive).

In the case of `CC(=O)Nc1sc(C)c(C)c1C(N)=O`, the Kd is > 4 mM (inactive).

On to `O=C(O)CNCC(O)Cn1c2ccccc2c2ccccc21` (configuration not stated), for which the Kd was > 4 mM (inactive).

As for `COC(=O)c1ccccc1C`, the Kd is > 4 mM (inactive).

In the case of `COC(=O)c1cnccc1C(F)(F)F`, the Kd was > 4 mM (inactive).

With `CN(C)C(=O)c1ccccc1-c1ccccc1`, the Kd is > 4 mM (inactive).

For `Oc1ccc(-n2ccnc2)cc1`, the Kd was > 4 mM (inactive).

Regarding `COc1ccc2cc1Oc1ccc(cc1)C[C@H]1c3c(cc4c(c3Oc3cc5c(cc3OC)CCN(C)[C@@H]5C2)OCO4)CCN1C`, the Kd was > 4 mM (inactive).

With `COC(=O)C[C@H]1C(C)(C)C(=O)[C@@H]2CC3C4=CC(=O)O[C@@H](c5ccoc5)[C@]4(C)CCC3C1(C)C2=O` (some centres not stated), the Kd is > 4 mM (inactive).

Turning to `Cc1ccc(-c2c(C)n([O-])c(C)c(C)[n+]2=O)cc1`, the Kd is > 4 mM (inactive).

With `COC(=O)c1cc(-c2c[nH]c3ccccc23)n[nH]1`, the Kd is > 4 mM (inactive).

`C[C@@H]1CCC2[C@](C)(CO)[C@@H](O)CC[C@]2(C)[C@@]12CC[C@@](CO)(CCO)O2` (some centres not stated): the Kd was > 4 mM (inactive).

Take `Nc1ncnc(Cl)c1[N+](=O)[O-]`: the Kd was > 4 mM (inactive).

On to `O=C(Nc1nnc(-c2cccnc2)o1)c1ccccc1F`, for which the Kd is > 4 mM (inactive).

Regarding `CSc1ccc2nnc(-c3cccnc3)n2n1`, the Kd was > 4 mM (inactive).

For the molecule `O=C(CN1C(=O)CCC1=O)c1ccccc1`, the Kd is > 4 mM (inactive).

With `CCN1C(=O)c2c(C)nc3ccccc3c2C1=O`, the Kd is > 4 mM (inactive).

Turning to `Cc1ccccc1NC(=O)CC1NCCNC1=O` (configuration not stated), the Kd is > 4 mM (inactive).

Consider `Cn1ccnc1SCc1cc(=O)[nH]c2ccccc12`, for which the Kd is > 4 mM (inactive).

As for `C=CCn1c(-c2ccc(O)cc2)n[nH]c1=S`, the Kd is > 4 mM (inactive).

Turning to `Nc1ccccc1N=C1CNC(=O)C1`, the Kd is > 4 mM (inactive).

As to `C(=N\n1cnnc1)/c1cccs1`, the Kd is > 4 mM (inactive).

In the case of `CC(C)=CCOc1c2occc2cc2ccc(=O)oc12`, the Kd was > 4 mM (inactive).

As to `O=S(=O)(Nc1cccnc1Cl)c1ccccc1`, the Kd is > 4 mM (inactive).

Take `Cc1c(N=CN2CCOCC2)c(=O)n(C)c(=O)n1C`: the Kd is > 4 mM (inactive).

Turning to `COC(=O)c1c(SC)nc(-c2ccccc2)[nH]c1=O`, the Kd is > 4 mM (inactive).

Regarding `CC(=O)Nc1nc2c(s1)C(=O)NCCC2`, the Kd is > 4 mM (inactive).

With `COc1cccc(/C=C2/SC(N)=NC2=O)c1`, the Kd was > 4 mM (inactive).

As to `Cc1cc(C)cc(C(=O)N2CCC(C(N)=O)CC2)c1`, the Kd was > 4 mM (inactive).

For the molecule `CCC(=O)NC(=S)Nc1ccc(N2CCOCC2)cc1`, the Kd was > 4 mM (inactive).

Take `Cc1c(N=CN(C)C)c(=O)n(-c2ccccc2)n1C`: the Kd was > 4 mM (inactive).

With `CC(=O)c1cc(C)ccc1OC(=O)c1cccnc1`, the Kd is > 4 mM (inactive).

With `COc1ccc(C2(CN)CCOCC2)cc1OC`, the Kd is > 4 mM (inactive).

In the case of `Cn1ncc(C(=O)O)c1-c1ccccc1`, the Kd was > 4 mM (inactive).

For `CC(C)c1c(O)ccc2c1CCC1[C@@](C)(CO)CCC[C@]21C` (some centres not stated), the Kd was > 4 mM (inactive).

With `Cc1noc(C)c1C(=O)Nc1ccccc1-c1ccccc1`, the Kd is > 4 mM (inactive).

As to `Cc1cc(NC(=O)CCCn2cnc([N+](=O)[O-])n2)no1`, the Kd was > 4 mM (inactive).

As for `O=C1C2C3CCC(O3)C2C(=O)N1c1ccccc1` (configuration not stated), the Kd is > 4 mM (inactive).

In the case of `O=C(CCc1n[nH]c(=O)[nH]c1=O)NCc1ccccc1`, the Kd is > 4 mM (inactive).

In the case of `O=C1CCN(c2ccccc2)N1`, the Kd is > 4 mM (inactive).

On to `NCc1ccc2c(c1)OCCCO2`, for which the Kd was > 4 mM (inactive).

In the case of `NCc1cc2ccccc2s1`, the Kd was > 4 mM (inactive).

For `O=c1c2ccccc2oc2ccccc12`, the Kd is > 4 mM (inactive).

On to `COC(=O)c1cccc(Cn2nnc3ccccc3c2=O)c1`, for which the Kd was > 4 mM (inactive).

With `c1cnc(N2CCSCC2)nc1`, the Kd was > 4 mM (inactive).

With `COc1ccc2cc1Oc1ccc(cc1)C[C@H]1c3cc(c(OC)cc3CCN1C)Oc1c(OC)c(OC)cc3c1[C@H](C2)N(C)CC3`, the Kd is > 4 mM (inactive).

Regarding `CC(=O)Nc1ccc(C(=O)NC2CCSC2=O)cc1` (configuration not stated), the Kd was > 4 mM (inactive).

`COc1c(OC)c2occc2c2oc(=O)ccc12`: the Kd was > 4 mM (inactive).

For the molecule `O=C(c1cccc(-n2cnnn2)c1)N1CCOCC1`, the Kd is > 4 mM (inactive).

Take `COc1ccc2c(c1OC)C(=O)N(c1ncn[nH]1)C2`: the Kd was > 4 mM (inactive).

Take `O=C(c1ccccc1)N1CCN(c2ccccc2F)CC1`: the Kd is > 4 mM (inactive).

As for `Fc1ccc(Br)cc1/C=N/n1cnnc1`, the Kd was > 4 mM (inactive).

For the molecule `COc1c(F)c(F)c(-c2csc(N)n2)c(F)c1F`, the Kd was > 4 mM (inactive).

For `Cc1ccc(N2CCN(C(=O)c3ccccc3)CC2)c(C)c1`, the Kd was > 4 mM (inactive).

Turning to `C=C(C)CSc1nc2nc(C)cc(C)n2n1`, the Kd is > 4 mM (inactive).

As to `COc1ccc2nc(N)sc2c1`, the Kd is > 4 mM (inactive).

For the molecule `Nc1cccc(S(=O)(=O)N2CCOCC2)c1`, the Kd was > 4 mM (inactive).

Take `O=C(Nc1ccccc1CO)c1ccccc1F`: the Kd was > 4 mM (inactive).

Regarding `C/C=C(\C)C(=O)OC1[C@@H]2C=C3C(CC[C@]4(C)C3CC(=O)O[C@H]4c3ccoc3)C(C)(C2=O)[C@@H](C(O)C(=O)OC)C1(C)C` (some centres not stated), the Kd was > 4 mM (inactive).

Consider `Cc1occc1C(=O)Nc1nnc(C2CCCCC2)s1`, for which the Kd is > 4 mM (inactive).

For `CC(C)NC(=O)Cc1c(O)c2ccccc2[nH]c1=O`, the Kd is > 4 mM (inactive).

Consider `CC(=O)OC1CCC2(O)CC1(C)CCC1C2CC1(C)C` (configuration not stated), for which the Kd is > 4 mM (inactive).

On to `CC(C)=CCc1c(O)cc(C)oc1=O`, for which the Kd is > 4 mM (inactive).

In the case of `Cc1sc2nc[nH]c(=S)c2c1C`, the Kd was > 4 mM (inactive).

For the molecule `Nc1c(F)c(F)nc(F)c1F`, the Kd is > 4 mM (inactive).

With `CC(C)=CCc1c2c(c3occ(-c4ccc(O)cc4)c(=O)c3c1O)C=CC(C)(C)O2`, the Kd was > 4 mM (inactive).

For `Cc1ccc(SCc2nc(-c3ccncc3)no2)cc1`, the Kd is > 4 mM (inactive).

As for `O=C1C=CC(=O)c2c(O)cccc21`, the Kd was > 4 mM (inactive).

In the case of `O=C1CCC([N+](=O)[O-])C(c2ccccc2F)N1` (configuration not stated), the Kd is > 4 mM (inactive).

For `O=C(Nc1ccccn1)c1cc(-n2cnnc2)ccc1Cl`, the Kd is > 4 mM (inactive).

Regarding `Cn1c(NCC(=O)O)nc2c1c(=O)[nH]c(=O)n2C`, the Kd was > 4 mM (inactive).
